Reference: BindingDB's records for patent US20240352000 (Korea Research Institute of Chemical Technology, 2024)

How the values were obtained:
[1] = target: T1, Epidermal growth factor receptor [DEL746-750,T790M,C797S] (Homo sapiens, UniProt P00533, C797S/DEL746-750/T790M); experiment: Measurement of Inhibitory Ability of the Compounds Represented by Formula 1 According to the Present Invention Against Wild Type EGFR and EGFR Mutants
T1 construct: gene EGFR
Description: (§1) An experiment to measure the activity of the compounds of the present invention against EGFR mutant enzymes was performed as follows using the HTRF system sold by Cisbio. For the EGFR del19/T790M mutant enzyme, a recombinant protein provided by Carna Biosciences was purchased and used, and for the EGFR del19/T790M/C797S mutant enzyme, a protein provided by SignalChem was purchased and used as an enzyme source.The composition of the assay buffer used for measuring the activity was 50 mM Tris-HCl pH 7.5, 100 mM NaCl, 7.5 mM MgCl2, 3 mM KCl, 0.01% Tween 20, 0.1% BSA, and 1 mM DTT. Here, an enzyme reaction was performed using […] and a peptide substrate labeled with biotin at a concentration of 0.5 mM. Analysis of the inhibitory effect of the compounds against the EGFR activity was conducted according to the following analysis reaction recipe.Component 1: 4 μL of an EGFR mutant enzymeComponent 2: 2 μL of a compound solutionComponent 3: 4 μL of ATP and a peptide labeled with biotinThe enzyme reaction was started by first mixing Component 1 and Component 2 and then adding Component 3. After reaction at 37° C. for 2 hours, […] consisting of streptavidin-XL665 and europium-labeled anti-phosphotyrosine antibody provided by Cisbio was added to the enzyme reaction solution and reacted at room temperature for 1 hour. Finally, the ratio of fluorescence values at 615 nm and 665 nm was obtained using the Envision equipment from Perkin-Elmer to quantitatively measure the enzyme activity and confirmed the inhibitory ability of the compounds.

[2] = target: T2, Epidermal growth factor receptor [DEL746-750,T790M] (Homo sapiens, UniProt P00533, DEL746-750/T790M); experiment: as above
T2 construct: gene EGFR
T2 sequence (P00533 with tags, fused parts or gaps DEL746-750/T790M limits assumed): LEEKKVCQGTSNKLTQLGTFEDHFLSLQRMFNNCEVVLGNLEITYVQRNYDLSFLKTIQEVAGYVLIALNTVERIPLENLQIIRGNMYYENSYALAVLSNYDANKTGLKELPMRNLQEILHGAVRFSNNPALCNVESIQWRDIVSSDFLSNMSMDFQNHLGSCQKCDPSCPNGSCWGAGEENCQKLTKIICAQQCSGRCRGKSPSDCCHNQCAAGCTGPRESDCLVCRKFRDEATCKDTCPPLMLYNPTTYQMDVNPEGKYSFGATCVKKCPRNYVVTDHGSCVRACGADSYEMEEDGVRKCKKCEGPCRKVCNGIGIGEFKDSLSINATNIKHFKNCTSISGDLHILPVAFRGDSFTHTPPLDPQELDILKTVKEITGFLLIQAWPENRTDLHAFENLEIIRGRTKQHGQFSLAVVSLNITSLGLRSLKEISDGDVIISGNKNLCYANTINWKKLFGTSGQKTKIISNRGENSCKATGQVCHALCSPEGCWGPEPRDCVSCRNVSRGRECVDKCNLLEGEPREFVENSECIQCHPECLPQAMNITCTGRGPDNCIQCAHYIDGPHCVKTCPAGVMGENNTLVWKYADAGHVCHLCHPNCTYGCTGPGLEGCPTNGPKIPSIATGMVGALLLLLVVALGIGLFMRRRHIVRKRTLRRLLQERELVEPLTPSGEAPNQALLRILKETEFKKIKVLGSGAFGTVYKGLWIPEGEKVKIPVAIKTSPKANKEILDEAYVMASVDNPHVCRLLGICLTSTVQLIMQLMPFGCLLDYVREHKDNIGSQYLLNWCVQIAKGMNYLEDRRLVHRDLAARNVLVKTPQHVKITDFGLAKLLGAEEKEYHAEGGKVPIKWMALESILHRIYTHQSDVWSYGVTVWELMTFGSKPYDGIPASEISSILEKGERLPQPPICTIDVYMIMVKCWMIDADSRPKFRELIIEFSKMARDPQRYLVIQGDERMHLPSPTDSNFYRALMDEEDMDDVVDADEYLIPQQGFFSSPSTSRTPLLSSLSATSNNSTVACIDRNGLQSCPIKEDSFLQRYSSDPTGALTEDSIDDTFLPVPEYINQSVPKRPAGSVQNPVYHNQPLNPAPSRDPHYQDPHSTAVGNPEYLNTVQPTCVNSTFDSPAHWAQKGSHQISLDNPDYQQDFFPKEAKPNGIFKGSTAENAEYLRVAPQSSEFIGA
Description: as §1

T1 sequence (P00533 with tags, fused parts or gaps C797S/DEL746-750/T790M limits assumed): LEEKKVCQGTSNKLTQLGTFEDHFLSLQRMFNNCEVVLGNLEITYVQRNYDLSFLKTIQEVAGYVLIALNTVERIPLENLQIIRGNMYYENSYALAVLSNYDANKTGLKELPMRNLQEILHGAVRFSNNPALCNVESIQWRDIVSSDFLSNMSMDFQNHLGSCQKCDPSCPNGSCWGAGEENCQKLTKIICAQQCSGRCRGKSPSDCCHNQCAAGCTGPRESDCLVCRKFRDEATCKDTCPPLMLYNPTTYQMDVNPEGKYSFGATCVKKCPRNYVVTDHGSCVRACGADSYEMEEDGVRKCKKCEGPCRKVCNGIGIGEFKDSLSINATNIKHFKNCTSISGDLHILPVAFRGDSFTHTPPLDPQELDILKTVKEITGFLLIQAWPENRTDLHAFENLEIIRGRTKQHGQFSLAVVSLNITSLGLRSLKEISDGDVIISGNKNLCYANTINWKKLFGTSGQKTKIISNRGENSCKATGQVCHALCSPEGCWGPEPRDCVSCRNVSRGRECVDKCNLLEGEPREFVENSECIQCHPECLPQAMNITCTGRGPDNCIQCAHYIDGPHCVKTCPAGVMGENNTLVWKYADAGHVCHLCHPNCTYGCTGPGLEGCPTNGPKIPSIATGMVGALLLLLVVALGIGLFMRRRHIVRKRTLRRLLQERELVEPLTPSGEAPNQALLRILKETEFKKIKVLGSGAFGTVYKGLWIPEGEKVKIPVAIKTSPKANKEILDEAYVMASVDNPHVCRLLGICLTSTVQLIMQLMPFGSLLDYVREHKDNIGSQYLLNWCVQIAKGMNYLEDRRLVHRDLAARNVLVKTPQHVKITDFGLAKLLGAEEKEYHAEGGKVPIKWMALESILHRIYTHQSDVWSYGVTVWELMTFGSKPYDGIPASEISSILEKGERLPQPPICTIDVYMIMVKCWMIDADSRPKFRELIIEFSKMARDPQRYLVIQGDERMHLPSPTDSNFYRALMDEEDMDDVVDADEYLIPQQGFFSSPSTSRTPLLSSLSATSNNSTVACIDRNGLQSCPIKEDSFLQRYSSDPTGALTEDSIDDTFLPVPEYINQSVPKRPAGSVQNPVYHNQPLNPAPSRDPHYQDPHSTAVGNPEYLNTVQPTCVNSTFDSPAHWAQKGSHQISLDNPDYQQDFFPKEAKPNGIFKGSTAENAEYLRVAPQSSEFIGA

| SMILES | IC50 [1] [µM] | IC50 [2] [µM] |
| --- | --- | --- |
| CCS(=O)(=O)N1CCc2cccc(Nc3nc(Nc4ccc(N5CCC(N6CCN(C)CC6)CC5)cc4OC)ncc3Cl)c21 [US20240352000, Example 13] |  | < 0.001 |
| CCC(=O)N1CCc2cccc(Nc3nc(Nc4ccc(N5CCC(N6CCN(C)CC6)CC5)cc4OC)ncc3Cl)c21 [US20240352000, Example 14] | 0.05 | 0.091 |
| COc1cc(N2CCC(N3CCN(C)CC3)CC2)ccc1Nc1ncc(Cl)c(Nc2cccc3c2N(C(C)=O)CCC3)n1 [US20240352000, Example 15] | 0.056 | 0.073 |
| COc1cc(N2CCC(N3CCNCC3)CC2)ccc1Nc1ncc(Cl)c(Nc2cccc3c2N(S(C)(=O)=O)CC3)n1 [US20240352000, Example 17] | < 0.001 |  |

Further lines, results first:

| IC50 [1] [µM] | IC50 [2] [µM] | SMILES |
| --- | --- | --- |
| < 0.001 |  | COc1cc(N(C)CCN(C)C)ccc1Nc1ncc(Cl)c(Nc2cccc3c2N(S(C)(=O)=O)CC3)n1 [US20240352000, Example 3] |
| < 0.001 |  | COc1cc(N2CCC(N3CCN(C)CC3)CC2)ccc1Nc1ncc(Cl)c(Nc2cccc3c2N(C(C)=O)CC3)n1 [US20240352000, Example 12] |
